The values that follow are results of earlier work, collected in patent US11524044B2, “Strengthening and tumor eliminating traditional Chinese medicine composition, its preparation method and application” (The First Afiliated Hospital Of Guangzhou University Of …, priority 2020, dated 2022).

The test system of data set [1] is human colon cancer, liver cancer, gastric cancer, lung cancer and breast cancer related cells.
The subject of data set [2] is ADP induced platelet aggregation.

Regarding `COc1cc(O)c(-c2c(O)cc(OC)c3c2ccc2cc(O)ccc23)c2c1-c1ccc(O)cc1CC2` [Cirrhopetalanthrin], the cytotoxicity result in data set [1] is given as “moderate cytotoxicity”.
With `N#C[C@H](O[C@@H]1O[C@H](CO[C@@H]2O[C@H](CO)[C@@H](O)[C@H](O)[C@H]2O)[C@@H](O)[C@H](O)[C@H]1O)c1ccccc1` [amygdalin], the “inhibition of ADP induced platelet aggregation” value in data set [2] is “inhibit ADP induced platelet aggregation in varying degrees”.
